{
  "source": "patent US20050090498A1",
  "about": "“3-Quinolin-2(1h)-ylideneindolin-2-one derivative” (priority 2001, published 2005)",
  "data": [
    {"tested_on": "Human umbilical vein endothelial cells (HUVEC), VEGF-stimulated", "assay": "Test on the inhibition of VEGF-stimulated HUVEC growth ([3H]thymidine incorporation)", "format": "cell-based", "details": "human recombinant VEGF 10 ng/ml", "units": {"IC50": "nM"}, "values": [
      {"smiles": "O=C1Nc2cc(C(=O)O)ccc2C1=C1C=Cc2ccccc2N1", "note": "[Example 25, 2-oxo-3-quinolin-2(1H)-ylideneindoline-6-carboxylic acid]", "IC50": 380},
      {"smiles": "O=C1Nc2ccccc2C1=C1C=Cc2cc(OCCn3ccnn3)ccc2N1", "note": "[Example 1, 3-{6-[2-(1H-1,2,3-triazol-1-yl)ethoxy]quinolin-2(1H)-ylidene}indolin-2-one]", "IC50": 210},
      {"smiles": "O=C1Nc2ccccc2C1=C1C=Cc2cc(OCC(=O)N3CCOCC3)ccc2N1", "note": "[Example 8, 3-[6-(2-morpholin-4-yl-2-oxoethoxy)quinolin-2(1H)-ylidene]indolin-2-one]", "IC50": 170}
    ]},
    {"tested_on": "Human umbilical vein endothelial cells (HUVEC), VEGF-stimulated", "assay": "Test on the inhibition of VEGF-stimulated HUVEC growth ([3H]thymidine incorporation)", "format": "cell-based", "details": "human recombinant VEGF 10 ng/ml", "remark": "another data set of the same source", "procedure": "Test method: (Cell culture) Human umbilical vein endothelial cells (HUVEC) were cultured using EGM-2 complete medium (Clonetics) which had been supplemented with additives (2% FBS, 0.4% FGF (fibroblast growth factor), 0.1% VEGF, 0.1% IGF-I (insulin like growth factor-I), 0.1% EGF (epidermal growth factor), 0.1% ascorbic acid, 0.1% GA-1000, 0.1% heparin and 0.04% hydrocortisone).\n(Evaluation of compounds) HUVEC (10,000 cells/well) were inoculated into EGM-2 complete medium in a gelatin-coated 96 well plate (mfd. by IWAKI) and cultured overnight. After washing with a physiological phosphate buffer, the medium was exchanged with a low serum medium (Medium 199/0.1% FBS) and the culturing was continued for 24 hours. Each of the compounds to be evaluated was prepared as a 10 mM DMSO solution and diluted with the low serum medium. This was added to each well to a final concentration of from 0.001 to 10 μM. After 2 hours of the compound treatment, human recombinant VEGF (R & D Systems) was added to a final concentration of 10 ng/ml. After 18 hours, [^3H]thymidine (Amersham Pharmacia) was added in 5 μCi/well portions. After 4 hours, the reaction was terminated by adding 0.2% SDS in 50 μl/well portions, and the product was recovered on GF/C Unifilter (Packard). After adding 25 μl of Microscinti 20 (Packard), the radioactivity incorporated into the DNA trapped on the filter was measured using TopCount (Packard). The IC50 of the inhibitory activity of each compound was calculated as the 50% inhibition concentration (IC50 value) of each compound to be tested, by defining the incorporated amount of [^3H]thymidine at the time of VEGF addition as 100%, and its incorporated amount at the time of no addition of VEGF as 0%.", "units": {"IC50": "nM"}, "values": [
      {"smiles": "O=C1Nc2ccccc2C1=C1C=Cc2cc(OCCCCN3CCOCC3)ccc2N1", "note": "[Example 47]", "IC50": 170},
      {"smiles": "CC(=O)Oc1ccc2c(c1)NC(=O)C2=C1C=Cc2ccccc2N1", "note": "[Example 265]", "IC50": 180},
      {"smiles": "O=C1Nc2ccccc2C1=C1C=Cc2cc(Br)ccc2N1", "note": "[Example 56]", "IC50": 110},
      {"smiles": "O=C1Nc2cc(F)ccc2C1=C1C=Cc2ccccc2N1", "note": "[Example 209]", "IC50": 18},
      {"smiles": "O=C1Nc2ccccc2C1=C1C=C(CO)c2ccccc2N1", "note": "[Example 187]", "IC50": 140},
      {"smiles": "O=C1Nc2ccccc2C1=C1C=Cc2ccc(OCCN3CCOCC3)cc2N1", "note": "[Example 102]", "IC50": 410},
      {"smiles": "CN1CCN(CCCc2ccc3c(c2)C=CC(=C2C(=O)Nc4ccccc42)N3)CC1", "note": "[Example 98]", "IC50": 150},
      {"smiles": "CN(C)CCN(C)CCOc1ccc2c(c1)C=CC(=C1C(=O)Nc3ccccc31)N2", "note": "[Example 86]", "IC50": 100},
      {"smiles": "O=C1Nc2ccccc2C1=C1C=Cc2cc(OCCN3CCN(CCO)CC3)ccc2N1", "note": "[Example 85]", "IC50": 110},
      {"smiles": "O=Cc1ccc2c(c1)NC(=O)C2=C1C=Cc2ccccc2N1", "note": "[Example 193]", "IC50": 870},
      {"smiles": "Cc1ccc2c(c1)C(=C1C=Cc3ccccc3N1)C(=O)N2", "note": "[Example 201]", "IC50": 290},
      {"smiles": "CCOC(=O)CNC(=O)c1ccc2c(c1)C=CC(=C1C(=O)Nc3ccccc31)N2", "note": "[Example 146]", "IC50": 76},
      {"smiles": "CC1=CC(=C2C(=O)Nc3ccccc32)Nc2ccccc21", "note": "[Example 38]", "IC50": 38},
      {"smiles": "CCOC(=O)c1ccc2c(c1)NC(=O)C2=C1C=Cc2cc(OCCN3CCOCC3)ccc2N1", "note": "[Example 294]", "IC50": 12},
      {"smiles": "COc1ccc2c(c1)C=CC(=C1C(=O)Nc3ccccc31)N2", "note": "[Example 37]", "IC50": 310},
      {"smiles": "O=C1Nc2cc(F)c(F)cc2C1=C1C=Cc2cc(OCCN3CCOCC3)ccc2N1", "note": "[Example 341]", "IC50": 20},
      {"smiles": "O=C1Nc2ccccc2C1=C1C=Cc2cc(OC(=O)c3ccccc3)ccc2N1", "note": "[Example 36]", "IC50": 160},
      {"smiles": "CNC(=O)c1ccc2c(c1)C=CC(=C1C(=O)Nc3ccccc31)N2", "note": "[Example 149]", "IC50": 73},
      {"smiles": "CN1CCCN(CCOc2ccc3c(c2)C=CC(=C2C(=O)Nc4ccccc42)N3)CC1", "note": "[Example 83]", "IC50": 110},
      {"smiles": "CCOC(=O)c1ccc2c(c1)C(=C1C=Cc3ccccc3N1)C(=O)N2", "note": "[Example 239]", "IC50": 310},
      {"smiles": "CCOC(=O)c1cc2c(cc1Cl)C(=C1C=Cc3cc(OCCN4CCOCC4)ccc3N1)C(=O)N2", "note": "[Example 298]", "IC50": 50},
      {"smiles": "O=C1Nc2cc(Cl)ccc2C1=C1C=Cc2ccccc2N1", "note": "[Example 217]", "IC50": 11},
      {"smiles": "O=C1Nc2cc(C(F)(F)F)ccc2C1=C1C=Cc2cc(OCCN3CCOCC3)ccc2N1", "note": "[Example 296]", "IC50": 47},
      {"smiles": "CCN(CC)CCNC(=O)C1=CC(=C2C(=O)Nc3ccccc32)Nc2ccccc21", "note": "[Example 160]", "IC50": 46},
      {"smiles": "O=C1Nc2cc(Cl)ccc2C1=C1C=Cc2cc(OCCN3CCOCC3)ccc2N1", "note": "[Example 312]", "IC50": 48},
      {"smiles": "O=C(CCc1ccc2c(c1)C=CC(=C1C(=O)Nc3ccccc31)N2)NOCC1CC1", "note": "[Example 144]", "IC50": 93},
      {"smiles": "O=C1Nc2cc(C(F)(F)F)ccc2C1=C1C=Cc2ccccc2N1", "note": "[Example 203]", "IC50": 4.8},
      {"smiles": "CCOC(=O)c1cc2c(cc1C)C(=C1C=Cc3ccccc3N1)C(=O)N2", "note": "[Example 222]", "IC50": 6.8},
      {"smiles": "O=C1Nc2ccccc2C1=C1C=Cc2cc(OCCCN3CCOCC3)ccc2N1", "note": "[Example 42]", "IC50": 110},
      {"smiles": "O=C1Nc2ccccc2C1=C1C=Cc2cc(OCCN3CCCCC3=O)ccc2N1", "note": "[Example 59]", "IC50": 87},
      {"smiles": "N#Cc1ccc2c(c1)NC(=O)C2=C1C=Cc2cc(OCCN3CCOCC3)ccc2N1", "note": "[Example 295]", "IC50": 33},
      {"smiles": "CCOC(=O)CCC1=CC(=C2C(=O)Nc3ccccc32)Nc2ccccc21", "note": "[Example 39]", "IC50": 32},
      {"smiles": "O=C1Nc2ccccc2C1=C1C=Cc2cc(C(=O)NCCN3CCOCC3)ccc2N1", "note": "[Example 145]", "IC50": 31},
      {"smiles": "O=C(O)CCc1ccc2c(c1)C=CC(=C1C(=O)Nc3ccccc31)N2", "note": "[Example 66]", "IC50": 350},
      {"smiles": "O=C1Nc2ccc(F)cc2C1=C1C=Cc2ccccc2N1", "note": "[Example 213]", "IC50": 0.97},
      {"smiles": "CCOC(=O)c1cc2c(cc1F)C(=C1C=Cc3ccccc3N1)C(=O)N2", "note": "[Example 204]", "IC50": 22},
      {"smiles": "CN1CCC(N(C)CCOc2ccc3c(c2)C=CC(=C2C(=O)Nc4ccccc42)N3)CC1", "note": "[Example 87]", "IC50": 100},
      {"smiles": "N#Cc1ccc2c(c1)NC(=O)C2=C1C=Cc2ccccc2N1", "note": "[Example 191]", "IC50": 70},
      {"smiles": "O=C1Nc2ccccc2C1=C1C=Cc2cc(OCCN3CCS(=O)(=O)CC3)ccc2N1", "note": "[Example 80]", "IC50": 100},
      {"smiles": "O=C1Nc2ccc(Cl)cc2C1=C1C=Cc2cc(OCCN3CCOCC3)ccc2N1", "note": "[Example 293]", "IC50": 48},
      {"smiles": "CCOC(=O)c1cc2c(cc1F)C(=C1C=Cc3cc(OCCN4CCOCC4)ccc3N1)C(=O)N2", "note": "[Example 299]", "IC50": 27},
      {"smiles": "COc1cc2c(cc1CCCN1CCOCC1)NC(=C1C(=O)Nc3ccccc31)C=C2", "note": "[Example 77]", "IC50": 160},
      {"smiles": "O=C(NCCN1CCOCC1)C1=CC(=C2C(=O)Nc3ccccc32)Nc2ccccc21", "note": "[Example 159]", "IC50": 38},
      {"smiles": "O=C1Nc2ccccc2C1=C1C=Cc2c(cccc2OCCN2CCOCC2)N1", "note": "[Example 105]", "IC50": 220},
      {"smiles": "O=C(NCCCN1CCOCC1)C1=CC(=C2C(=O)Nc3ccccc32)Nc2ccccc21", "note": "[Example 163]", "IC50": 43},
      {"smiles": "O=C1Nc2ccc(Cl)cc2C1=C1C=Cc2ccccc2N1", "note": "[Example 283]", "IC50": 84},
      {"smiles": "O=C1Nc2ccc([N+](=O)[O-])cc2C1=C1C=Cc2ccccc2N1", "note": "[Example 284]", "IC50": 360},
      {"smiles": "O=C1Nc2ccccc2C1=C1C=Cc2cc(OCCNC3CCC(O)CC3)ccc2N1", "note": "(stereo not shown) [Example 57]", "IC50": 720},
      {"smiles": "O=C1Nc2ccc(Br)cc2C1=C1C=Cc2ccccc2N1", "note": "[Example 285]", "IC50": 70},
      {"smiles": "CCOCc1ccc2c(c1)NC(=O)C2=C1C=Cc2ccccc2N1", "note": "[Example 259]", "IC50": 71},
      {"smiles": "CCOC(=O)c1ccc2c(c1)NC(=O)C2=C1C=Cc2ccccc2N1", "note": "[Example 17, ethyl 3-[quinolin-2(1H)-ylidene]indolin-2-one-carboxylate]", "IC50": 12},
      {"smiles": "COCCNCc1ccc2c(c1)C=CC(=C1C(=O)Nc3ccccc31)N2", "note": "[Example 112]", "IC50": 100},
      {"smiles": "COCCOc1ccc2c(c1)C=CC(=C1C(=O)Nc3ccccc31)N2", "note": "[Example 58]", "IC50": 34},
      {"smiles": "CCOC(=O)C1CCN(CCOc2ccc3c(c2)C=CC(=C2C(=O)Nc4ccccc42)N3)CC1", "note": "[Example 79]", "IC50": 100},
      {"smiles": "O=C1Nc2ccccc2C1=C1C=Cc2cc(OCCN3CCC(n4c(=O)[nH]c5ccccc54)CC3)ccc2N1", "note": "[Example 81]", "IC50": 68},
      {"smiles": "CCN(CC)CCOc1ccc2c(c1)C(=C1C=Cc3ccccc3N1)C(=O)N2", "note": "[Example 286]", "IC50": 750},
      {"smiles": "CCOC(=O)c1cc2c(cc1C)C(=C1C=Cc3cc(OCCN4CCOCC4)ccc3N1)C(=O)N2", "note": "[Example 301]", "IC50": 7.6},
      {"smiles": "O=C1Nc2ccccc2C1=C1C=Cc2cc(OCCN3CCN(c4ncccn4)CC3)ccc2N1", "note": "[Example 82]", "IC50": 42}
    ]}
  ]
}
